As a reminder, the ED50 is the dose at which the effect has come halfway, by size or by number of responders. A word on the inhibition: it is the drop in the measured response relative to a control, in per cent. The IC50 is the concentration needed to halve the response being measured.

For one test, the system named is TBZ-induced ptosis. Put plainly: Effects on tetrabenazine (TBZ)-induced ptosis in mice. In kind it is in vivo, mouse. The following applies: Mus musculus, po. The method, boiled down:
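Mice dosed p.o. with test compound and challenged with tetrabenazine; blockade of TBZ-induced ptosis scored per the cited Nodine and Moyer procedure. Values are ED50 in mg/kg.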

The next test relates to metrazole. The experiment in a line: Anti-metrazole test in mice. In kind it is in vivo, mouse. The following applies: Mus musculus, read-out: MTZ ED50. The procedure:
The anti-metrazole test in mice was carried out as described in Everett et al, J. Pharmacol. Exp. Therap. 81:402-407 (1944); which is hereby incorporated by reference.
(§1) The results for this test are given below as ED50's in the units of mg/kg.

In test [1] the test system is acetic acid-induced writhing. Put plainly: Acetic Acid Writhing Test in Mice. In kind it is in vivo, mouse. The following applies: Mus musculus, po, read-out: WRITH ED50. The method, boiled down: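 Writhing provoked by intraperitoneal acetic acid in mice, following the Hendershot and Koster procedures. Values are effective doses (ED50) in mg/kg.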
(In general: In writhing tests, fewer writhes than in controls are read as antinociception.)

Test [2] deals with PDGF-BB-stimulated mitogenesis of bovine smooth muscle cells. The experiment in a line: Smooth muscle cell mitogenesis test. The format is cell-based. The procedure:
The procedure for the Smooth Muscle Cell Mitogenesis test is given just below. The fibronectin adhesion inhibitor, compound B, was tested for inhibitory effects on PDGF (Platelet Derived Growth Factor) BB-stimulated mitogenesis of bovine smooth muscle cells. Cells were exposed to PDGF with and without compound B in 24-well plates for 16 hours.

Another test concerns methamphetamine toxicity. The experiment in a line: Methamphetamine toxicity test in mice. In kind it is in vivo. The following applies: Mus musculus, read-out: METHA ED50. The protocol: The methamphetamine toxicity test in mice was carried out as described in Burn et al, Arch. Int. Pharmacodyn 113:290-295, (1958); and Coscia et al, Arzneim-Forsch (Drug Research) 25:1436-1442, (1975); which are hereby incorporated by reference.
as §1
METHA refers to the methamphetamine toxicity test in mice;

`COc1ccc(C2=C3CC4CCC(N4)C3c3ccccc32)cc1` (stereo not shown) [Compound B]: the ED50 is 12 mg/kg with TBZ-induced ptosis, > 30 mg/kg with metrazole, > 30 mg/kg in test [1] and > 30 mg/kg with methamphetamine toxicity. Besides, the “3H-Thymidine Incorporation (dpm/1000 ± S.E.M.)” value in test [2] (0.1 μM + 1 ng/ml PDGF-BB) amounted to 406.8 ± 30.2 dpm/1000; in test [2] (0.3 μM + 1 ng/ml PDGF-BB), 347.7 ± 9.8 dpm/1000; in test [2] (1 μM + 1 ng/ml PDGF-BB) it was 156.3 ± 7.2 dpm/1000; in test [2] (3 μM + 1 ng/ml PDGF-BB) it was 17.0 ± 1.9 dpm/1000; in test [2] (10 μM + 1 ng/ml PDGF-BB) it was 7.3 ± 5.3 dpm/1000. Besides, in test [2] (10 μM), the cell detachment entry was “caused cells to detach from the plate”. In test [2] (Bos taurus, 0.1 μM + 1 ng/ml PDGF-BB), the inhibition at 0.1 µM is -2.7%. Further, in test [2] (Bos taurus, 0.3 μM + 1 ng/ml PDGF-BB), the inhibition at 0.3 µM was determined as 18.5%. In test [2] (Bos taurus, 1 μM + 1 ng/ml PDGF-BB), the inhibition at 1 µM is 87.1%. The inhibition at 3 µM in test [2] (Bos taurus, 3 μM + 1 ng/ml PDGF-BB) was determined as 137%. Further, in test [2] (Bos taurus, 10 μM + 1 ng/ml PDGF-BB), the inhibition at 10 µM was found to be 140%. In addition, the IC50 in test [2] (Bos taurus, 16 hours, read-out: inhibition of PDGF-stimulated mitogenesis IC50) came to 520 nM.

For the origin of these results see patent US5461057A, “Hydro-ethano-indeno-pyridines” (priority 1994, dated 1995).
